Source: PMC6968775, “Assessment of contribution of BCRP to intestinal absorption of various drugs using portal‐systemic blood concentration difference model in mice” (Pharmacology Research & Perspectives, 2020)

Assays:
[1] = Pharmacokinetics after iv and oral administration, P‐S difference method, Mdr1a/1b(−/−) mice; assay type: in vivo
Protocol: (§1) Male Mdr1a/1b(−/−) and Bcrp(−/−) mice, and WT mice of the same genetic background (FVB) were obtained from Taconic Farms (Germantown, NY, USA). […] Food and water were available ad libitum. All experiments were carried out in accordance with the principles and procedures outlined in the National Institutes of Health Guide for the Care and Use of Laboratory.
(§2) All the mice were fasted overnight with free access to tap water. In the intravenous administration studies, model compounds were administered via the tail vein at doses of 1 mg/kg (n = 3). Following administration, blood samples were collected from the abdominal vein of the anesthetized mice at 0.083, 0.17, 0.5, 1, 2, 4, and 8 hours. […] Following administration, blood samples were taken from the portal and abdominal veins of the anesthetized mice at 0.083, 0.17, 0.5, 1, 2, 4, and 8 hours. The plasma samples were separated by centrifugation at 14 000g for 10 minutes at 4°C and stored at −30°C until analysis.
(§3) After organic layer was evaporated at 60°C, the resultant residues were dissolved in a mobile phase. For the determination of topotecan and sulfasalazine, plasma samples were mixed with acetonitrile, centrifuged at 750 g for 10 minutes at 4°C, and the supernatants were collected. After the evaporation of the supernatants, the residues were dissolved in a mobile phase, and acidified with phosphoric acid for topotecan. All drugs were analyzed by HPLC system (Shimadzu LC‐10AS pump, Shimadzu SIL‐10A autosampler) equipped with a reverse‐phase column (COSMOSIL 5C18‐AR‐II, 3.5‐μm […], 4.6 × 150 mm).
(§4) Elimination rate constant (k e) was determined by the least squares regression analysis of plasma concentration vs time curve. Elimination half‐life (t 1/2) was calculated using Eq.1:(1) t1/2=ln2/ke
(§5) Area under plasma concentration‐time curve (AUC) and area under the first moment curve (AUMC) from time 0 to infinity were calculated by trapezoidal rule.
(§6) Absorption rate constant (k a) after oral administration was calculated by the nonlinear least squares fitting with program MULTI.12
(§7) BA was calculated by Eq.5:(7) BA=AUCoral/AUCiv×Doseiv/Doseoral×100 where AUCoral is AUC after oral administration. Doseiv and Doseoral are administered dose in the intravenous and oral administration study, respectively.
(§8) Hepatic availability (F h) was calculated by Eq.6:(8) Fh=F/Fa×Fg

[2] = Blood/plasma concentration ratio (R b) in fresh whole blood; assay type: in vitro ADME, FVB mice; conditions: fresh whole blood, FVB mouse whole blood, 37°C
Protocol: Similarly, the model compounds were added to plasma, and reference blood samples were obtained according to the same procedure. These concentrations of drugs in each sample were analyzed using HPLC (C B and C P, respectively). R b value was calculated by dividing C B by C P.

[3] = Pharmacokinetics after iv and oral administration, P‐S difference method, Bcrp(−/−) mice; assay type: in vivo
Protocol: as §1, §2, §3, §4, §5, §6, §7, §8

[4] = tested on: P‐gp; conditions: Caco‐2 permeability study; unpublished data; ref Fujita et al, manuscript in preparation; cited from earlier work
[5] = Pharmacokinetics after iv and oral administration, P‐S difference method, wild‐type mice; assay type: in vivo
Protocol: as §1, §2, §3, §4, §5, §6, §7, §8

[6] = tested on: P‐gp; conditions: in vivo (mice); calculated from F a F g in WT, Bcrp(−/−) and Mdr1a/1b(−/−) mice (Eq. 12)
[7] = human; cited from earlier work
[8] = Mdr1a/1b(−/−) mice, p.o. (ciprofloxacin 1, nitrofurantoin 2, topotecan 1, sulfasalazine 5 mg/kg)
[9] = male, Mdr1a/1b(−/−) (FVB background), mouse, systemic plasma (abdominal vein), po
[10] = Bcrp(−/−) mice, p.o. (ciprofloxacin 1, nitrofurantoin 2, topotecan 1, sulfasalazine 5 mg/kg)
[11] = Bcrp(−/−) mice, p.o. (ciprofloxacin 1, nitrofurantoin 2, topotecan 1, sulfasalazine 5 mg/kg), systemic (sys) plasma
[12] = wild‐type mice, p.o. (ciprofloxacin 1, nitrofurantoin 2, topotecan 1, sulfasalazine 5 mg/kg)
[13] = wild‐type mice, p.o. (ciprofloxacin 1, nitrofurantoin 2, topotecan 1, sulfasalazine 5 mg/kg), systemic (sys) plasma

O=C(O)c1cc(/N=N/c2ccc(S(=O)(=O)Nc3ccccn3)cc2)ccc1O [sulfasalazine, Sulfasalazine]
F h [1, 8]: 55.6%
k a [1, 8]: 0.93 h⁻¹
BA ([1]; Mdr1a/1b(−/−) mice, p.o. (ciprofloxacin 1, nitrofurantoin 2, topotecan 1, sulfasalazine 5 mg/kg) vs iv 1 mg/kg): 11.5%
F a F g ([1]; Mdr1a/1b(−/−) mice, p.o. (ciprofloxacin 1, nitrofurantoin 2, topotecan 1, sulfasalazine 5 mg/kg), P‐S difference method): 30%
k a, P‐gp ([1]; Table 5 summary, Mdr1a/1b(−/−) mice, oral administration): 0.93
(F a F g)P‐gp ([1]; as fraction, Mdr1a/1b(−/−) mice, oral administration): 0.30
clearance ([1]; male, FVB Mdr1a/1b(−/−), mouse, plasma (systemic, abdominal vein), Mdr1a/1b(−/−) mice, iv 1 mg/kg, read-out: CL tot (converted)): 9.83 mL/min/kg
Vd ([1]; male, FVB Mdr1a/1b(−/−), mouse, plasma (systemic, abdominal vein), Mdr1a/1b(−/−) mice, iv 1 mg/kg, read-out: Vdss): 0.45 L/kg
half-life ([1]; male, Mdr1a/1b(−/−) (FVB background), mouse, plasma, Mdr1a/1b(−/−) mice, iv 1 mg/kg): 1.63 h
AUC(0-inf) ([1]; male, Mdr1a/1b(−/−) (FVB background), mouse, plasma, Mdr1a/1b(−/−) mice, iv 1 mg/kg, read-out: AUC 0→∞): 4.28 µM·h
Tmax ([1]; male, Mdr1a/1b(−/−) (FVB background), mouse, portal vein plasma, po): 0.17 h
Tmax [1, 9]: 0.5 h
half-life [1, 9]: 1.11 h
blood plasma ratio at 15 min, 1 µg/mL [2]: 1.28 ± 0.03
F h [3, 10]: 73.2%
k a [3, 10]: 0.49 h⁻¹
BA ([3]; Bcrp(−/−) mice, p.o. (ciprofloxacin 1, nitrofurantoin 2, topotecan 1, sulfasalazine 5 mg/kg) vs iv 1 mg/kg): 95.2%
AUC 0→∞ (AUCpv) ([3]; Bcrp(−/−) mice, p.o. (ciprofloxacin 1, nitrofurantoin 2, topotecan 1, sulfasalazine 5 mg/kg), portal vein (pv) plasma): 290 000 nmol/L·h
AUC 0→∞ (AUCsys) [3, 11]: 288 000 nmol/L·h
t 1/2 [3, 11]: 7.07 h
k a, bcrp ([3]; Table 5 summary, Bcrp(−/−) mice, oral administration): 0.49
(F a F g)bcrp ([3]; as fraction, Bcrp(−/−) mice, oral administration): 1.30
half-life ([3]; male, Bcrp(−/−) (FVB background), mouse, plasma, iv, 1 mg/kg, Bcrp(−/−) mice, iv 1 mg/kg): 3.57 h
Tmax ([3]; male, Bcrp(−/−) (FVB background), mouse, portal vein plasma, po): 2 h
Tmax ([3]; male, Bcrp(−/−) (FVB background), mouse, systemic plasma (abdominal vein), po): 2 h
AUC(0-inf) ([3]; male, FVB Bcrp(−/−), mouse, plasma (systemic, abdominal vein), iv, 1 mg/kg, Bcrp(−/−) mice, iv 1 mg/kg, read-out: AUC 0→∞): 60.5 µM·h
C0 ([3]; male, FVB Bcrp(−/−), mouse, plasma (systemic, abdominal vein), Bcrp(−/−) mice, intravenous injection 1 mg/kg, read-out: extrapolated plasma concentration at zero time (C 0)): 18.1 µM
clearance ([3]; male, FVB Bcrp(−/−), mouse, plasma (systemic, abdominal vein), Bcrp(−/−) mice, iv 1 mg/kg, read-out: CL tot (converted)): 0.667 mL/min/kg
Vd ([3]; male, FVB Bcrp(−/−), mouse, plasma (systemic, abdominal vein), Bcrp(−/−) mice, iv 1 mg/kg, read-out: Vdss): 0.19 L/kg
AUC(0-inf) ([3]; male, FVB Bcrp(−/−), mouse, portal vein plasma, po, Bcrp(−/−) mice, p.o. (ciprofloxacin 1, nitrofurantoin 2, topotecan 1, sulfasalazine 5 mg/kg), portal vein (pv) plasma, read-out: AUC 0→∞ (AUCpv)): 290 µM·h
half-life ([3]; male, FVB Bcrp(−/−), mouse, systemic plasma (abdominal vein), po, Bcrp(−/−) mice, p.o. (ciprofloxacin 1, nitrofurantoin 2, topotecan 1, sulfasalazine 5 mg/kg), systemic (sys) plasma): 7 h
AUC(0-inf) ([3]; male, FVB Bcrp(−/−), mouse, systemic plasma (abdominal vein), po, Bcrp(−/−) mice, p.o. (ciprofloxacin 1, nitrofurantoin 2, topotecan 1, sulfasalazine 5 mg/kg), systemic (sys) plasma, read-out: AUC 0→∞ (AUCsys)): 288 µM·h
AUC pv and AUC sys after oral administration, Bcrp(−/−) mice vs WT mice ([3]; oral administration): more than 130 fold
AQp‐gp in vitro (Caco‐2) [4]: 0.05
k a, wt ([5]; Table 5 summary, WT mice, oral administration): 1.40
C0 ([5]; male, FVB (wild-type), mouse, plasma (systemic, abdominal vein), WT mice, intravenous injection 1 mg/kg, read-out: extrapolated plasma concentration at zero time (C 0)): 11.7 µM
clearance ([5]; male, FVB (wild-type), mouse, plasma (systemic, abdominal vein), wild‐type mice, iv 1 mg/kg, read-out: CL tot (converted)): 11 mL/min/kg
Vd ([5]; male, FVB (wild-type), mouse, plasma (systemic, abdominal vein), wild‐type mice, iv 1 mg/kg, read-out: Vdss): 0.59 L/kg
half-life ([5]; male, FVB (wild-type), mouse, plasma, iv, 1 mg/kg, wild‐type mice, iv 1 mg/kg): 1.95 h
AUC(0-inf) ([5]; male, FVB (wild-type), mouse, plasma, iv, 1 mg/kg, wild‐type mice, iv 1 mg/kg, read-out: AUC 0→∞): 3.82 µM·h
Tmax ([5]; male, FVB (wild-type), mouse, portal vein plasma, po): 0.17 h
AUC(0-inf) ([5]; male, FVB (wild-type), mouse, portal vein plasma, po, wild‐type mice, p.o. (ciprofloxacin 1, nitrofurantoin 2, topotecan 1, sulfasalazine 5 mg/kg), portal vein (pv) plasma, read-out: AUC 0→∞ (AUCpv)): 2.2 µM·h
Tmax ([5]; male, FVB (wild-type), mouse, systemic plasma (abdominal vein), po): 0.5 h
half-life ([5]; male, FVB (wild-type), mouse, systemic plasma (abdominal vein), po, wild‐type mice, p.o. (ciprofloxacin 1, nitrofurantoin 2, topotecan 1, sulfasalazine 5 mg/kg), systemic (sys) plasma): 1 h
AUC(0-inf) ([5]; male, FVB (wild-type), mouse, systemic plasma (abdominal vein), po, wild‐type mice, p.o. (ciprofloxacin 1, nitrofurantoin 2, topotecan 1, sulfasalazine 5 mg/kg), systemic (sys) plasma, read-out: AUC 0→∞ (AUCsys)): 1.94 µM·h
F h [5, 12]: 60.1%
k a [5, 12]: 1.40 h⁻¹
BA ([5]; wild‐type mice, p.o. (ciprofloxacin 1, nitrofurantoin 2, topotecan 1, sulfasalazine 5 mg/kg) vs iv 1 mg/kg): 10.2%
F a F g ([5]; wild‐type mice, p.o. (ciprofloxacin 1, nitrofurantoin 2, topotecan 1, sulfasalazine 5 mg/kg), P‐S difference method): 16.9%
AUC 0→∞ (AUCpv) ([5]; wild‐type mice, p.o. (ciprofloxacin 1, nitrofurantoin 2, topotecan 1, sulfasalazine 5 mg/kg), portal vein (pv) plasma): 2.2 µM·h
AUC 0→∞ (AUCsys) [5, 13]: 1.94 µM·h
t 1/2 [5, 13]: 1.11 h
R P‐gp (rate of P‐gp contribution) [6]: 0.09
AUC after oral administration, patients heterozygous variant for the BCRP SNP vs normal BCRP [7]: approximately 2 fold
human BA [7]: < 15%
human F a F g [7]: 12%
